In article PMC3914206:

How the values were obtained:
[1] = molecular target: T1, panel of 442 kinases (Homo sapiens, UniProt O94768); format: binding; conditions: Compound Concentration 10 µM
T1 construct: purchased KINOMEscan
T1 sequence (O94768 1-372): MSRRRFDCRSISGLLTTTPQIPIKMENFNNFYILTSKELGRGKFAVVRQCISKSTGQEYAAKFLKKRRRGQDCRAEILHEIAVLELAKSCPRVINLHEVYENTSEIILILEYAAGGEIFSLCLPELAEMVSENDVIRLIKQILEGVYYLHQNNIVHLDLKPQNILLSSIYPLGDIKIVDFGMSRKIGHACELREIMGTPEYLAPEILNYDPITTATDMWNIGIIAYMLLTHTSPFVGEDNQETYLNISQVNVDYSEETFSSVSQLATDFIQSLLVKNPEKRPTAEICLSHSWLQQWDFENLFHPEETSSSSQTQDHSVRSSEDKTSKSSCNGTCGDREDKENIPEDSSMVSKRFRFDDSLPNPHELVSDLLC
Text: (§1) We assessed the selectivity of members of this scaffold using the KINOMEscan methodology across a near comprehensive panel of 442 kinases [[18,27]].

[2] = molecular target: T2, panel of 442 kinases (Homo sapiens, UniProt Q02763); format: binding; conditions: kinase TIE2; compound concentration 10 µM
T2 construct: purchased KINOMEscan
Text: as §1

T2 sequence (Q02763 23-1124): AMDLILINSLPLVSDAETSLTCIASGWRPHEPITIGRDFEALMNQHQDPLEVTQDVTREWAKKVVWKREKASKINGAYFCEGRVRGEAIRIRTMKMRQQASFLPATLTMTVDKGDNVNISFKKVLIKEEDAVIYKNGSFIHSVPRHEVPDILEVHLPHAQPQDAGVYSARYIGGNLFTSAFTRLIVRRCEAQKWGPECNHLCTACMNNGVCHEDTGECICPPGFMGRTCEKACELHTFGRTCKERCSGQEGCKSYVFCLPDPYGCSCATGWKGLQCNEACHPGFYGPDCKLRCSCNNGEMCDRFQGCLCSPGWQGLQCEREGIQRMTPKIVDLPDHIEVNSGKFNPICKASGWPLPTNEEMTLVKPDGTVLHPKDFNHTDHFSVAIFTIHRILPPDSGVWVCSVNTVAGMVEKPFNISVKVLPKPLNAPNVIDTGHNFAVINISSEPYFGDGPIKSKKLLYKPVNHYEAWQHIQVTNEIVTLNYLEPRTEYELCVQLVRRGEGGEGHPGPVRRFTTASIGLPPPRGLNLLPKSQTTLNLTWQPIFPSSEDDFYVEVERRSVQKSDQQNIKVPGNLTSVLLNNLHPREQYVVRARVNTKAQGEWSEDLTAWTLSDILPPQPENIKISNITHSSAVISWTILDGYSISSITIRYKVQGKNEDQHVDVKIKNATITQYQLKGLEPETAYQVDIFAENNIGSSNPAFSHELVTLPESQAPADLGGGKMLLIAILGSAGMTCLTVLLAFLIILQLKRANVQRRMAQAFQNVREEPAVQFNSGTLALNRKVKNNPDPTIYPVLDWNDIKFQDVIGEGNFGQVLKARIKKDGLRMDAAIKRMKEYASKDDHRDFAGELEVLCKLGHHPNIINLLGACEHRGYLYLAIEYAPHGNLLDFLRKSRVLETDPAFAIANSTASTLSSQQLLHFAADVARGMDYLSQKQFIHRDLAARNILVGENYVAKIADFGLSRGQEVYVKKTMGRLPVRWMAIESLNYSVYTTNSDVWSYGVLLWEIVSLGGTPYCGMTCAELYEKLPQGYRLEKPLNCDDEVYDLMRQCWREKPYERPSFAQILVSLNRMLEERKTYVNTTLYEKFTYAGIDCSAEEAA

Compound | KINOMEscan: DRAK2 [1] | % Ctrl, TIE2 [2] [% Ctrl]
COc1cc(C(=O)N2CCC(N3CCN(C)CC3)CC2)ccc1Nc1ncc2c(n1)N(C1CCCC1)c1ccccc1C(=O)N2C [Compound 25, 11-cyclopentyl-2-((2-methoxy-4-(4-(4-methylpiperazin-1-yl)piperidine-1-carbonyl)phenyl)amino)-5-methyl-5H-benzo[e]pyrimido[5,4-b][1,4]diazepin-6(11H)-one] | 100 | 100
COc1cc(C(=O)N2CCC(N3CCN(C)CC3)CC2)ccc1Nc1ncc2c(n1)N1CCc3cccc(c31)C(=O)N2C [Compound 24] |  | 79
COc1cc(C(=O)N2CCC(N3CCN(C)CC3)CC2)ccc1Nc1ncc2c(n1)N(C)c1ccccc1C(=O)N2C [15 (LRRK2-IN-1)] | 93 | 100
CCOc1cc(C(=O)N2CCC(N3CCN(C)CC3)CC2)ccc1Nc1ncc2c(n1)N(C1CCCC1)c1ccccc1C(=O)N2C [Compound 26] | 100 | 100
